Measured values as given in ChEMBL document CHEMBL3272164, “Compounds with gastric antisecretory activity. 1. Phenoxyalkylamines” (J Med Chem, 1977).

Each compound was assayed on Rattus norvegicus (assay: Inhibition of histamine-induced gastric acid secretion in po dosed rat in ligated stomach preparation administered 1 hr prior to the ligation of the pylorus). Details: not given.
Type: functional
With `C(=C\C12CC3CC(CC(C3)C1)C2)/c1ccccc1OCCN1CCCC1.Cl` the ED50 was 1.5 mg/kg.
`CN/C(=N\CCSCc1nc[nH]c1C)NC#N` [CIMETIDINE] gave an ED50 of 21.5 mg/kg.

Each compound was assayed on Rattus norvegicus (assay: Toxicity in rat at 5 mg/kg, iv). Details: in vivo.
Type: organism-based
Design: dose 5 mg/kg, route intravenous
With `CCCCCCCc1ccccc1OCCNCC.O=C(O)C(=O)O` the Activity was “Toxic”.
With `CCCCCCCc1ccccc1OCCCNC(C)C.O=C(O)C(=O)O` the Activity was “Toxic”.

The compounds below were run on Rattus norvegicus (assay: Inhibition of histamine-induced gastric acid secretion in rat in perfused stomach preparation at 2.5 mg/kg, iv after 15 mins). Details: 0.25 h.
Type: functional
In the case of `c1ccc(OCCN2CCCCC2)c(CCC2CCCCC2)c1`, the inhibition in vivo at 2.5 mg/kg is reported as 50%.
`CN1CCCCC1COc1ccccc1CCC1CCCCC1` (centres undefined) showed an inhibition in vivo at 2.5 mg/kg of 64%.

Each compound was assayed on Rattus norvegicus (assay: Inhibition of histamine-induced gastric acid secretion in rat in perfused stomach preparation at 1.25 mg/kg, iv after 15 mins). Details: 0.25 h.
Type: functional
Compound `c1ccc(OCCN2CCCC2)c(CCC23CC4CC(CC(C4)C2)C3)c1` has an inhibition in vivo at 1.25 mg/kg of 100%.
`CCN(CC)CCOc1ccccc1/C=C/C1CCCCC1` showed an inhibition in vivo at 1.25 mg/kg of 82%.
Work on `C(=C\C1CCCCC1)/c1ccccc1OCCN1CCCC1` yielded an inhibition in vivo at 1.25 mg/kg of 90%.

Each compound was assayed on Rattus norvegicus (assay: Inhibition of histamine-induced gastric acid secretion in rat in perfused stomach preparation at 5 mg/kg, iv after 15 mins). Details: 0.25 h.
Type: functional
`CCCCCCc1ccccc1OCCN(CC)CC` was tested, and the inhibition in vivo at 5 mg/kg was 48%.
`CCCCCCCc1ccccc1OCCN(CC)CC` showed an inhibition in vivo at 5 mg/kg of 82%.
`CCCCCCCCCc1ccccc1OCCN(CC)CC` gave an inhibition in vivo at 5 mg/kg of 25%.
`CCN(CC)CCOc1ccccc1CCCC(C)(C)C` showed an inhibition in vivo at 5 mg/kg of 50%.
`CCN(CC)CCOc1ccccc1CCC1CCCCC1` gave an inhibition in vivo at 5 mg/kg of 74%.
In the case of `CCN(CC)CCOc1ccc(F)cc1CCC1CCCCC1`, the inhibition in vivo at 5 mg/kg is reported as 95%.
`CCN(CC)CCOc1ccc(Cl)cc1CCC1CCCCC1` gave an inhibition in vivo at 5 mg/kg of 75%.
In the case of `CCN(CC)CCOc1ccc(OC)cc1CCC1CCCCC1`, the inhibition in vivo at 5 mg/kg is reported as 78%.
For `CCCCCCCc1cc(C)ccc1OCCN(CC)CC`, the inhibition in vivo at 5 mg/kg was 61%.
Work on `CCN(CC)CCOc1ccc(C(C)=O)cc1CCC1CCCCC1` yielded an inhibition in vivo at 5 mg/kg of 36%.
`CN(C)CCOc1ccccc1CCC1CCCCC1` gave an inhibition in vivo at 5 mg/kg of 29%.
`CN(C)CCCOc1ccccc1CCC1CCCCC1` gave an inhibition in vivo at 5 mg/kg of 42%.
`CCN(CC)CCCOc1ccccc1CCC1CCCCC1` was tested, and the inhibition in vivo at 5 mg/kg was 66%.
For `c1ccc(OCCN2CCCC2)c(CCC2CCCCC2)c1`, the inhibition in vivo at 5 mg/kg was 95%.
Compound `c1ccc(OCCN2CCOCC2)c(CCC2CCCCC2)c1` has an inhibition in vivo at 5 mg/kg of 10%.
Compound `CCCN(CCC)CCOc1ccccc1CCC1CCCCC1` has an inhibition in vivo at 5 mg/kg of 62%.
Work on `CC(C)N(CCOc1ccccc1CCC1CCCCC1)C(C)C` yielded an inhibition in vivo at 5 mg/kg of 32%.
`CN1CCN(CCOc2ccccc2CCC2CCCCC2)CC1` gave an inhibition in vivo at 5 mg/kg of 0%.
Work on `c1ccc(N2CCN(CCOc3ccccc3CCC3CCCCC3)CC2)cc1` yielded an inhibition in vivo at 5 mg/kg of 0%.
Work on `CC(C)CN1CCN(CCOc2ccccc2CCC2CCCCC2)CC1` yielded an inhibition in vivo at 5 mg/kg of 51%.
Compound `CN1CCCCC1COc1ccccc1CCC1CCCCC1` (centres undefined) has an inhibition in vivo at 5 mg/kg of 100%.
Work on `CCN1CCCC(COc2ccccc2CCC2CCCCC2)C1` (centres undefined) yielded an inhibition in vivo at 5 mg/kg of 57%.
For `CCCCC/C=C/c1ccccc1OCCN1CCCC1`, the inhibition in vivo at 5 mg/kg was 71%.
`CCCCCC/C=C/c1ccccc1OCCN1CCCC1` showed an inhibition in vivo at 5 mg/kg of 50%.

What follows are compounds tested on Rattus norvegicus (assay: Inhibition of histamine-induced gastric acid secretion in rat in perfused stomach preparation at 0.078 mg/kg, iv after 15 mins). Details: 0.25 h.
Type: functional
In the case of `c1ccc(OCCN2CCCC2)c(CCC23CC4CC(CC(C4)C2)C3)c1`, the inhibition in vivo at 0.078 mg/kg is reported as 83%.
Compound `C(=C\C12CC3CC(CC(C3)C1)C2)/c1ccccc1OCCN1CCCC1.Cl` has an inhibition in vivo at 0.078 mg/kg of 97%.
In the case of `C(=C/C12CC3CC(CC(C3)C1)C2)/c1ccccc1OCCN1CCCC1`, the inhibition in vivo at 0.078 mg/kg is reported as 65%.
With `CN(C)CCOc1ccccc1/C=C/C12CC3CC(CC(C3)C1)C2` (trans isomer) the inhibition in vivo at 0.078 mg/kg was 52%.

Each compound was assayed on Rattus norvegicus (assay: Inhibition of histamine-induced gastric acid secretion in iv dosed rat in perfused stomach preparation measured after 15 mins). Details: 0.25 h.
Type: functional
`C(=C\C12CC3CC(CC(C3)C1)C2)/c1ccccc1OCCN1CCCC1.Cl` gave an ED50 of 0.018 mg/kg.
`CN/C(=N\CCSCc1nc[nH]c1C)NC#N` [CIMETIDINE] was tested, and the ED50 was 0.3 mg/kg.
